# According to PubChem BioAssay (NCI):
#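 Results reflect a 48-hour exposure of cells in 96-well plates to compound at five concentrations. The concentration for full growth arrest is given as TGI.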
# Columns and labels:
# Test in all cases: inhibition of tumour cell growth, NCI panel, 48 h
# [1] = tested on: MALME-3M melanoma
# [2] = tested on: OVCAR-3 ovarian
# [3] = tested on: OVCAR-8 ovarian
# [4] = tested on: TK-10 renal
# [5] = tested on: K-562 leukemia
# [6] = tested on: HOP-62 NSCLC
# [7] = tested on: NCI-H460 lung
# [8] = tested on: SF-268 CNS
# [9] = tested on: HCC-2998 colon
# [10] = tested on: CAKI-1 renal
# [11] = tested on: T-47D breast
# [12] = tested on: NCI-H522 lung
# [13] = tested on: NCI/ADR-RES ovarian
# [14] = tested on: HL-60(TB) leukemia
# [15] = tested on: SK-OV-3 ovarian
# [16] = tested on: EKVX NSCLC
# [17] = tested on: HCT-116 colon
# [18] = tested on: HT29 colon
# [19] = tested on: MDA-MB-231 breast
# [20] = tested on: UO-31 renal
# [21] = tested on: UACC-62 melanoma
# [22] = tested on: SF-295 CNS
# [23] = tested on: MDA-N
# [24] = tested on: OVCAR-4 ovarian
# [25] = tested on: UACC-257 melanoma
# [26] = tested on: HS 578T breast
# [27] = tested on: HOP-92 NSCLC
# [28] = tested on: U251 CNS
# [29] = tested on: SW-620 colon
# [30] = tested on: SN12C renal
# [31] = tested on: SK-MEL-5 melanoma
# [32] = tested on: M14 melanoma
# [33] = tested on: ACHN renal
# [34] = tested on: MDA-MB-435
# [35] = tested on: SK-MEL-2 melanoma
# [36] = tested on: COLO 205 colon
# [37] = tested on: OVCAR-5 ovarian
# [38] = tested on: IGROV1 ovarian
# [39] = tested on: A549 NSCLC
# [40] = tested on: KM12 colon
# [41] = tested on: DU-145 prostate
# [42] = tested on: A498 renal
# [43] = tested on: NCI-H226 lung
# [44] = tested on: 786-0 renal
# [45] = tested on: SK-MEL-28 melanoma
# [46] = tested on: MCF7 breast
# [47] = tested on: PC-3 prostate
# [48] = tested on: SNB-19 CNS
# [49] = tested on: HCT-15 colon
# [50] = tested on: BT-549 breast
# [51] = tested on: NCI-H23 lung
# [52] = tested on: LOX IMVI melanoma
# [53] = tested on: CCRF-CEM leukemia
# [54] = tested on: MOLT-4 leukemia
# [55] = tested on: RXF 393 renal
# [56] = tested on: SNB-75 CNS
# [57] = tested on: SF-539 CNS
compound,measurement,setting,value
CN(C)CCCn1c(Cn2nc3ccccc3n2)nc2cc(C(F)(F)F)ccc21,TGI,[1],24.4 µM
same,TGI,[2],> 100 µM
same,TGI,[3],> 100 µM
same,TGI,[4],80.6 µM
same,TGI,[5],36.6 µM
same,TGI,[6],> 100 µM
same,TGI,[7],89 µM
same,TGI,[8],> 100 µM
same,TGI,[9],21.2 µM
same,TGI,[10],> 100 µM
same,TGI,[11],35.1 µM
same,TGI,[12],31.2 µM
same,TGI,[13],> 100 µM
same,TGI,[14],16.5 µM
same,TGI,[15],60.9 µM
same,TGI,[16],> 100 µM
same,TGI,[17],> 100 µM
same,TGI,[18],46.2 µM
same,TGI,[19],> 100 µM
same,TGI,[20],73.2 µM
same,TGI,[21],40.8 µM
same,TGI,[22],> 100 µM
same,TGI,[23],35.6 µM
same,TGI,[24],> 100 µM
same,TGI,[25],33.5 µM
same,TGI,[26],> 100 µM
same,TGI,[27],89.9 µM
same,TGI,[28],> 100 µM
same,TGI,[29],> 100 µM
same,TGI,[30],> 100 µM
same,TGI,[31],30.2 µM
same,TGI,[32],29 µM
same,TGI,[33],> 100 µM
same,TGI,[34],33 µM
same,TGI,[35],43.5 µM
same,TGI,[36],28.6 µM
same,TGI,[37],> 100 µM
same,TGI,[38],> 100 µM
same,TGI,[39],> 100 µM
same,TGI,[40],54.1 µM
same,TGI,[41],> 100 µM
same,TGI,[42],41.7 µM
same,TGI,[43],> 100 µM
same,TGI,[44],35.3 µM
same,TGI,[45],34.6 µM
same,TGI,[46],64.7 µM
same,TGI,[47],> 100 µM
same,TGI,[48],> 100 µM
same,TGI,[49],> 100 µM
same,TGI,[50],> 100 µM
same,TGI,[51],> 100 µM
same,TGI,[52],34.6 µM
same,TGI,[53],39.5 µM
same,TGI,[54],45.6 µM
same,TGI,[55],> 100 µM
O=S(=O)(/N=C(\NO)Nc1ccc(Cl)cc1)c1cc2ccccc2s1,TGI,[1],29.6 µM
same,TGI,[2],32.4 µM
same,TGI,[3],30.7 µM
same,TGI,[4],41.1 µM
same,TGI,[5],> 100 µM
same,TGI,[6],34.8 µM
same,TGI,[7],> 100 µM
same,TGI,[8],29.2 µM
same,TGI,[10],34.7 µM
same,TGI,[11],84.2 µM
same,TGI,[12],27.2 µM
same,TGI,[13],38.7 µM
same,TGI,[14],45.3 µM
same,TGI,[15],34.7 µM
same,TGI,[16],26 µM
same,TGI,[17],30.2 µM
same,TGI,[18],35 µM
same,TGI,[56],29.8 µM
same,TGI,[19],34.8 µM
same,TGI,[20],48.7 µM
same,TGI,[21],29.3 µM
same,TGI,[22],41 µM
same,TGI,[23],36.6 µM
same,TGI,[24],37.9 µM
same,TGI,[25],49.9 µM
same,TGI,[26],37.5 µM
same,TGI,[27],38.8 µM
same,TGI,[28],29.1 µM
same,TGI,[29],82 µM
same,TGI,[30],33 µM
same,TGI,[31],30.1 µM
same,TGI,[32],33.3 µM
same,TGI,[33],30.5 µM
same,TGI,[34],36.9 µM
same,TGI,[35],30.4 µM
same,TGI,[36],29.6 µM
same,TGI,[37],29.5 µM
same,TGI,[38],28.7 µM
same,TGI,[39],38.1 µM
same,TGI,[40],57.2 µM
same,TGI,[41],49.2 µM
same,TGI,[43],33.2 µM
same,TGI,[44],32.3 µM
same,TGI,[45],39.6 µM
same,TGI,[47],27.7 µM
same,TGI,[48],31.2 µM
same,TGI,[49],36 µM
same,TGI,[57],40.2 µM
same,TGI,[50],31.6 µM
same,TGI,[51],30.5 µM
same,TGI,[52],33.5 µM
same,TGI,[53],87.5 µM
same,TGI,[54],77.8 µM
same,TGI,[55],36 µM
